Paper PMC5823406, “Vehicle development, pharmacokinetics and toxicity of the anti-invasive agent 4-fluoro-3’,4’,5’-trimethoxychalcone in rodents” (PLoS ONE, 2018)

How the values were obtained:
[1] = target: CYP 2D6 (Homo sapiens, UniProt P10635); experiment: CYP inhibition 2D6 (MFC substrate); format: in vitro ADME; settings: 10 μM
Source text: Table 3 In vitro physicochemical, stability and metabolism data. | column: Value

[2] = Stability and homogeneity of C16 dispersion in Medigel Sucralose; format: physicochemical; settings: for Peak ratio C16/IS relative to first time point, Average of three wavelengths: Medigel Sucralose 235.29 mg/cup, 1.64% DMSO
Protocol: A pre-weighed amount of C16 was dissolved in 1 mL of DMSO and the resulting solution was delivered into a cup of Medigel sucralose (pre-warmed to room temperature) with a syringe through the foil lid. In order to facilitate even distribution of C16 in the gel, the injection was spread over several points. The resulting suspension of C16 in gel was dispersed evenly by vigorous shaking for at least two minutes. Visual control confirmed a uniform and finely dispersed suspension of C16 particles in the gel. The final DMSO concentration in the gel was 1.64%. […]
A.B. Vehicle development for repeated high-dose PO administration of C16 b. Stability test of the 300 mg/kg preparation of C16 in Medigel Sucralose at room temperature The 300 mg/kg preparation refers to a cup containing 235.29 mg of C16 and 1.64% DMSO (see Materials and Methods section of main text). Sampling took place for a solvent control cup (containing only 1.64% DMSO) , and for the medicated cup at 0.17, 5.33, 55, 102 and 144 h post preparation. Samples of 1 mL were withdrawn with syringe and needle through the lid, and mixed with 1 mL of acetonitrile. The supernatant of the resulting suspension was filtered through a Whatman 0.2 µm PTFE syringe filter and analyzed using HPLC -MS.
Instrument: Agilent 1200 series HPLC system
Column: Ascentis Express C18 column 2.7 µm (30 x 4.6 mm)
Mobile phase A: Water (H2O) + 5 mM NH4OAc
Mobile phase B: Acetonitrile
Column Temperature: 40 °C
UV Detector: Diode array detector, 190 – 400 nm
Table B. Stability of C16 in Medigel Sucralose: g radient program .
Time (min) Flow rate (mL/min) A (%) B (%)
Mass spectrometer conditions
Instrument: Agilent 1100 series VL mass spectrometer
Ionization mode: API-ES, positive ions
Main derivative: Z-isomer of C16
Retention time : 3.34 min
Table C. Stability of C16 in Medigel Sucralose: evolution of peak areas of IS, C16 and its Z-isomer in time for three wavelengths. […]
time IS peak C16 Z- Ratio IS peak C16 Z- Ratio IS peak C16 Z- Ratio
(h) area peak isomer (C16/IS area peak isomer (C16/IS area peak isomer (C16/IS (mAU.s) area peak peak (mAU.s) area peak peak (mAU.s) area peak peak
(mAU.s) area area) (mAU.s) area area) (mAU.s) area area)
Peak ratios for stability assessment
Peak ratios for C16/IS, relative to the first time point, were calculated for three wavelengths (Table D).
Table D. Stability of C16 in Medigel Sucralose: peak ratios for C16/IS, relative to first time point, for three wavelengths.
Peak ratios for homogeneity assessment of a 300 mg/kg C16-doped gel
The 300 mg/kg preparation refers to a cup containing 235.29 mg of C16 and 1.64% DMSO. After preparation (see ‘Materials and Methods’ section of main text), the gel was sampled through the lid at five sites (Fig A).
Fig A. Sampling of C16-doped Medigel Sucralose.
The samples were analyzed according to the method described above for the stability test of C16 in Medigel Sucralose […]
Table E. Peak areas of IS, C16 and its Z-isomer at five sampling sites for three wavelengths. […]
sites IS peak C16 peak Ratio IS peak C16 peak Ratio IS peak C16 peak Ratio area area (C16/IS area area (C16/IS area area (C16/IS
(mAU.s) (mAU.s) peak area) (mAU.s) (mAU.s) peak area) (mAU.s) (mAU.s) peak area) […]
Individual plasma concentrations for C16 are shown in Table F and Table G. All data are expressed as ng/mL of the free drug. Samples that were below the limit of quantitation were not used in the calculation of averages. Plasma concentrations versus time data are plotted in Fig B and Fig C. Measured dosing concentrations were used in all pharmacokinetic calculations.
(1 picture or pasted object on this page, not shown here)

Sequence of CYP 2D6 (P10635 whole entry): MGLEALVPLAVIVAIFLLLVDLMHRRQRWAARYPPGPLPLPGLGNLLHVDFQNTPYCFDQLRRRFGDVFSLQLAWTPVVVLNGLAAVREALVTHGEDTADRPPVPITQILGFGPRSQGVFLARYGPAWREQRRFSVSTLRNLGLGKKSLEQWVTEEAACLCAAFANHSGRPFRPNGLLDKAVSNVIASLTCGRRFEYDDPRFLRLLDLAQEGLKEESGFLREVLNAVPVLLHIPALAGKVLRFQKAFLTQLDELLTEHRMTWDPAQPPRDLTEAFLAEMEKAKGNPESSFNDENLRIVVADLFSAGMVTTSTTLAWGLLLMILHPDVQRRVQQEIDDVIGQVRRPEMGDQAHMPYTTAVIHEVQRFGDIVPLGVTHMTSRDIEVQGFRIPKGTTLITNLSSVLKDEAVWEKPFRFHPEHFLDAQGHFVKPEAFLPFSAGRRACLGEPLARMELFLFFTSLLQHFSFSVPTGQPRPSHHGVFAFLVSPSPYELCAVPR

## COc1cc(C(=O)/C=C/c2ccc(F)cc2)cc(OC)c1OC [C16, 4-fluoro-3’,4’,5’-trimethoxychalcone]
[1]
  CYP inhibition 2D6 (MFC substrate): -19 % inhibition of control
[2]; room temperature, 5.3 h
  Peak ratio C16/IS relative to first time point, Average of three wavelengths: 90.3
[2]; room temperature, 55 h
  Peak ratio C16/IS relative to first time point, Average of three wavelengths: 95.0
[2]; room temperature, 102 h
  Peak ratio C16/IS relative to first time point, Average of three wavelengths: 96.9
[2]; room temperature, 144 h
  Peak ratio C16/IS relative to first time point, Average of three wavelengths: 85.8
[2]; five sampling sites
  Distribution of compound in Medigel Sucralose: uniformly distributed
[2]; room temperature, over 144 h
  Stability of suspension in Medigel Sucralose: stable
